Reference: ChEMBL document CHEMBL5360555, “Structure-based discovery of novel α-aminoketone derivatives as dual p53-MDM2/MDMX inhibitors for the treatment of cancer” (Eur J Med Chem, 2023)

Tests used:
[1] = target: E3 ubiquitin-protein ligase Mdm2 (Homo sapiens, UniProt Q00987); experiment: Binding affinity to MDM2 (1 to 118 residues) (unknown origin) assessed as inhibition constant incubated for 1 hr measured by fluorescence polarization assay
[2] = tested on: HCT-116; experiment: Antiproliferative activity against human HCT-116 cells overexpressing MDM2 assessed as cell growth inhibition incubated for 72 hrs by CCK-8 assay; type: functional, cell-based; conditions: HCT-116, 72 h
[3] = tested on: SH-SY5Y; experiment: Antiproliferative activity against human SH-SY5Y cells overexpressing MDMX assessed as cell growth inhibition incubated for 72 hrs by CCK-8 assay; type: functional, cell-based
[4] = tested on: HCT-116; experiment: Antiproliferative activity against human HCT-116 cells overexpressing MDM2 assessed as cell growth inhibition incubated at 10 uM for 72 hrs by CCK-8 assay relative to control; type: functional
[5] = tested on: SH-SY5Y; experiment: Antiproliferative activity against human SH-SY5Y cells overexpressing MDMX assessed as cell growth inhibition incubated at 10 uM for 72 hrs by CCK-8 assay relative to control; type: functional
[6] = target: T1, Protein Mdm4 (Homo sapiens, UniProt O15151); experiment: Binding affinity to MDMX (1 to 118 residues) (unknown origin) assessed as inhibition constant incubated for 1 hr measured by fluorescence polarization assay
T1 sequence (O15151 whole entry): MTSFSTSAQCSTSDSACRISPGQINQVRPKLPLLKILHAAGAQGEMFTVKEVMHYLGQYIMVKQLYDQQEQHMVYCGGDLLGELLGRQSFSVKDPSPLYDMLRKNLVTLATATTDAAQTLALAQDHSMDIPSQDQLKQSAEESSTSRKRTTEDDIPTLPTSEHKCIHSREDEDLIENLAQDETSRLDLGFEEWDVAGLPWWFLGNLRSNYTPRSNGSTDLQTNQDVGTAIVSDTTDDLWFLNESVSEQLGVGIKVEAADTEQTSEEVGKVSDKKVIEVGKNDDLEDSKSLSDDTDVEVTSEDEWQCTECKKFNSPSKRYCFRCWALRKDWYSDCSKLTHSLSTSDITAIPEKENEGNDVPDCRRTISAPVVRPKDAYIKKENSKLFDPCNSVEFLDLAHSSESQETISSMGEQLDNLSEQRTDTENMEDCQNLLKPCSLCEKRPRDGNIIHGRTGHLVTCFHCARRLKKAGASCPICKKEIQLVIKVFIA

[7] = Antiproliferative activity against human HCT116-p53-null cells overexpressing MDMX assessed as cell growth inhibition incubated for 72 hrs by CCK-8 assay; type: functional, cell-based
[8] = tested on: SJSA-1; experiment: Antiproliferative activity against human SJSA-1 cells overexpressing MDM2 assessed as cell growth inhibition incubated for 72 hrs by CCK-8 assay; type: functional, cell-based; conditions: SJSA-1, 72 h

Chain of E3 ubiquitin-protein ligase Mdm2 (Q00987 whole entry, the tested form may be a part): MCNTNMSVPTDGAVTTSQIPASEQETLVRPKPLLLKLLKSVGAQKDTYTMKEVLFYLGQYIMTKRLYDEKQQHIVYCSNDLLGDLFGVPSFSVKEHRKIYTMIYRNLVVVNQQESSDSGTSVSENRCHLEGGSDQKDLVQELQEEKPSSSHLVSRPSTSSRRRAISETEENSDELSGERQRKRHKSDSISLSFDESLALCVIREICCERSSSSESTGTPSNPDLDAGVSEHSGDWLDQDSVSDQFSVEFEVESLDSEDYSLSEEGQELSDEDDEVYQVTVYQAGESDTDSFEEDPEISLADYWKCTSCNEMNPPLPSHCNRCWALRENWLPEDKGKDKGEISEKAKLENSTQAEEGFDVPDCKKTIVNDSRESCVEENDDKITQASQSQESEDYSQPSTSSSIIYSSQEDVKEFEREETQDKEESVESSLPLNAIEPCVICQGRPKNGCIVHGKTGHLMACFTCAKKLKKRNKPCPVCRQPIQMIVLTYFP

SMILES	Ki [1]	IC50 [2]	IC50 [3]	inhibition at 10 µM [4]	inhibition at 10 µM [5]	Ki [6]	IC50 [7]	IC50 [8]
O=C(c1ccccc1)C(Nc1ccccc1)c1ccccc1 (stereo unspecified)	38.2 µM	> 40 µM	> 40 µM	–	–	–	–	–
O=C(c1ccc(Cl)cc1)C(Cc1cccc(F)c1)C(=O)c1cc(F)ccc1F (stereo unspecified)	12.8 µM	–	–	14.3%	18.9%	–	–	–
CCN1CCN(C(=O)CCC(=O)N(c2ccc(Cl)cc2)C(C(=O)c2ccc(Cl)cc2)c2ccc(F)cc2Cl)CC1 (stereo unspecified)	0.69 µM	6.24 µM	5.82 µM	–	–	9.37 µM	20.9 µM	5.93 µM
COc1ccc(S(=O)(=O)N(c2ccc(Cl)cc2)C(C(=O)c2ccc(Cl)cc2)c2ccc(F)cc2Cl)cc1 (stereo unspecified)	0.65 µM	12 µM	9.64 µM	–	–	15.6 µM	30.5 µM	10.4 µM
COc1cccc(CC(C(=O)c2ccc(Cl)cc2)C(=O)c2cc(F)ccc2F)c1 (stereo unspecified)	14.6 µM	–	–	26.3%	18.3%	–	–	–
O=C(c1ccc(Cl)cc1)C(Nc1cc(F)cc(F)c1)c1ccc(Cl)cc1F (stereo unspecified)	2.45 µM	13.3 µM	13.6 µM	–	–	–	–	–
COc1ccc(NC(C(=O)c2ccc(Cl)cc2)c2ccc(F)cc2Cl)cc1 (stereo unspecified)	27.8 µM	30.1 µM	29.3 µM	–	–	–	–	–
O=C(O)/C=C/C(=O)N(c1ccc(Cl)cc1)C(C(=O)c1ccc(Cl)cc1)c1ccc(F)cc1Cl (stereo unspecified)	1.1 µM	15.4 µM	15 µM	–	–	–	31.3 µM	15.6 µM
COc1ccc(C(=O)C(Nc2ccccc2)c2ccccc2)cc1 (stereo unspecified)	25.8 µM	> 40 µM	> 40 µM	–	–	–	–	–
O=C(c1ccc(Cl)cc1)C(Cc1cccc(C(F)(F)F)c1)C(=O)c1cc(F)ccc1F (stereo unspecified)	13.4 µM	–	–	48.4%	42.9%	–	–	–
O=C(c1ccc(Cl)cc1)C(Nc1ccc(F)cc1)c1ccc(F)cc1Cl (stereo unspecified)	7.34 µM	15.6 µM	17.2 µM	–	–	–	–	–
O=C(c1ccc(Cl)cc1)C(Cc1ccsc1)C(=O)c1cc(F)ccc1F (stereo unspecified)	14 µM	–	–	31.8%	15.3%	–	–	–
O=C(c1ccc(Cl)cc1)C(Cc1ccc(-c2ccccc2)cc1)C(=O)c1cc(F)ccc1F (stereo unspecified)	24.5 µM	–	–	29.9%	13.2%	–	–	–
O=C(O)CCC(=O)N(c1ccc(Cl)cc1)C(C(=O)c1ccc(Cl)cc1)c1ccc(F)cc1Cl (stereo unspecified)	1.07 µM	14.2 µM	8.13 µM	–	–	–	36.4 µM	12 µM
Cc1cccc(CC(C(=O)c2ccc(Cl)cc2)C(=O)c2cc(F)ccc2F)c1 (stereo unspecified)	22.5 µM	–	–	33.7%	24.6%	–	–	–
O=C(c1ccc(Cl)cc1)C(Nc1cccc(Cl)c1)c1ccc(F)cc1Cl (stereo unspecified)	6.92 µM	16.6 µM	14.1 µM	–	–	–	–	–
O=C(CCC(=O)N(c1ccc(Cl)cc1)C(C(=O)c1ccc(Cl)cc1)c1ccc(F)cc1Cl)NCCN1CCOCC1 (stereo unspecified)	0.56 µM	7.69 µM	5.44 µM	–	–	13 µM	28.4 µM	6.74 µM
O=C(c1ccc(Cl)cc1)C(Nc1ccc(Cl)cc1)c1cc(F)ccc1F (stereo unspecified)	14.9 µM	21.5 µM	21.8 µM	–	–	–	–	–
O=C(c1ccc(Cl)cc1)C(Nc1cccc(Cl)c1F)c1ccc(Cl)c(Cl)c1 (stereo unspecified)	2.13 µM	11.1 µM	11 µM	–	–	–	–	–
O=C(O)CCCCC(=O)N(c1ccc(Cl)cc1)C(C(=O)c1ccc(Cl)cc1)c1ccc(F)cc1Cl (stereo unspecified)	0.71 µM	10.4 µM	9.47 µM	–	–	–	26.3 µM	11.4 µM
COC(=O)CCC(=O)N(c1ccc(Cl)cc1)C(C(=O)c1ccc(Cl)cc1)c1ccc(F)cc1Cl (stereo unspecified)	1.39 µM	19.6 µM	20.8 µM	–	–	–	32.4 µM	18.9 µM
O=C(c1ccc(F)cc1)C(Nc1ccc(Cl)cc1)c1ccc(Cl)cc1 (stereo unspecified)	12.3 µM	18.8 µM	15 µM	–	–	–	–	–
O=C(c1ccc(Cl)cc1)C(Cc1ccc(Cl)nc1)C(=O)c1cc(F)ccc1F (stereo unspecified)	15.3 µM	–	–	39.4%	20.1%	–	–	–
O=C(O)CCCC(=O)N(c1ccc(Cl)cc1)C(C(=O)c1ccc(Cl)cc1)c1ccc(F)cc1Cl (stereo unspecified)	0.78 µM	10.1 µM	11.4 µM	–	–	–	29.6 µM	9.83 µM
O=C(c1ccc(Cl)cc1)C(Cc1cc(Cl)cc(Cl)c1)C(=O)c1cc(F)ccc1F (stereo unspecified)	7.69 µM	–	–	33.5%	9.49%	–	–	–

SMILES	Ki [1]	IC50 [2]	IC50 [3]	inhibition at 10 µM [4]	inhibition at 10 µM [5]	Ki [6]	IC50 [7]	IC50 [8]
O=C(c1ccc(Cl)cc1)C(Nc1ccc(Cl)cc1)c1ccc(F)cc1Cl (stereo unspecified)	0.91 µM	11.7 µM	9.84 µM	–	–	–	–	–
O=C(c1ccc(Cl)cc1)C(Cc1cc2ccccc2cn1)C(=O)c1cc(F)ccc1F (stereo unspecified)	21.8 µM	–	–	36.7%	9.44%	–	–	–
O=C(c1ccc(Cl)cc1)C(Cc1ccccc1Cl)C(=O)c1cc(F)ccc1F (stereo unspecified)	15.1 µM	–	–	25.4%	22.7%	–	–	–
COC(=O)CCCCC(=O)N(c1ccc(Cl)cc1)C(C(=O)c1ccc(Cl)cc1)c1ccc(F)cc1Cl (stereo unspecified)	0.82 µM	14.1 µM	13.7 µM	–	–	–	37.2 µM	12.3 µM
O=C(O)c1ccc(C(=O)N(c2ccc(Cl)cc2)C(C(=O)c2ccc(Cl)cc2)c2ccc(F)cc2Cl)cc1 (stereo unspecified)	0.32 µM	2.26 µM	1.03 µM	–	–	4.22 µM	16.8 µM	1.95 µM
COC(=O)CCCC(=O)N(c1ccc(Cl)cc1)C(C(=O)c1ccc(Cl)cc1)c1ccc(F)cc1Cl (stereo unspecified)	1.15 µM	16.1 µM	14.2 µM	–	–	–	28.2 µM	14.9 µM
O=C(c1ccc(Cl)cc1)C(c1ccc(F)cc1Cl)N(C(=O)CCC(=O)N1CCN(CCO)CC1)c1ccc(Cl)cc1 (stereo unspecified)	0.48 µM	3.97 µM	4.42 µM	–	–	11.6 µM	15.6 µM	4.36 µM
Cc1cc(Cl)cc(NC(C(=O)c2ccc(F)cc2)c2ccc(F)c(Cl)c2)c1 (stereo unspecified)	19.7 µM	18.5 µM	18.2 µM	–	–	–	–	–
O=C(c1ccc(Cl)cc1)C(Nc1cc(F)cc(F)c1)c1ccc(Cl)c(Cl)c1 (stereo unspecified)	6.86 µM	13.5 µM	13.1 µM	–	–	–	–	–
COC(=O)c1ccc(NC(=O)CCC(=O)N(c2ccc(Cl)cc2)C(C(=O)c2ccc(Cl)cc2)c2ccc(F)cc2Cl)cc1 (stereo unspecified)	0.96 µM	14 µM	13 µM	–	–	29.1 µM	23.1 µM	13.9 µM
CC(=O)N1CCN(C(=O)CCC(=O)N(c2ccc(Cl)cc2)C(C(=O)c2ccc(Cl)cc2)c2ccc(F)cc2Cl)CC1 (stereo unspecified)	0.35 µM	4.21 µM	4.1 µM	–	–	7.43 µM	26.8 µM	3.79 µM
O=C(c1ccc(Cl)cc1)C(Nc1ccccc1)c1ccccc1 (stereo unspecified)	18.3 µM	> 40 µM	> 40 µM	–	–	–	–	–
O=C(c1ccc(Cl)cc1)C(Nc1ccc(Cl)c(Cl)c1)c1ccc(Cl)c(Cl)c1 (stereo unspecified)	4.29 µM	12.3 µM	14.4 µM	–	–	–	–	–
O=C(c1ccc(Cl)cc1)C(Nc1ccc(Cl)cc1)c1ccc(F)c(Cl)c1 (stereo unspecified)	24.2 µM	29.2 µM	21.3 µM	–	–	–	–	–
O=C(c1ccc(Br)cc1)C(Nc1ccc(Cl)cc1)c1ccc(Cl)cc1 (stereo unspecified)	13.2 µM	21.9 µM	20.4 µM	–	–	–	–	–
Cc1cc(Cl)cc(NC(C(=O)c2ccc(Cl)cc2)c2ccc(F)c(Cl)c2)c1 (stereo unspecified)	17.4 µM	16.4 µM	17.5 µM	–	–	–	–	–
O=C(c1ccc(Cl)cc1)C(Nc1ccc(Cl)cc1)c1cc(F)cc(F)c1 (stereo unspecified)	24.7 µM	> 40 µM	> 40 µM	–	–	–	–	–
O=C(c1ccc(Cl)cc1)C(Cc1ccc(Cl)cc1)C(=O)c1cc(F)ccc1F (stereo unspecified)	23.5 µM	–	–	5.64%	10.9%	–	–	–
COC(=O)c1ccc(C(=O)N(c2ccc(Cl)cc2)C(C(=O)c2ccc(Cl)cc2)c2ccc(F)cc2Cl)cc1 (stereo unspecified)	1.06 µM	8.86 µM	7.33 µM	–	–	12.9 µM	20.8 µM	10.2 µM
O=C(c1ccccc1)C(Cc1ccccc1)C(=O)c1ccccc1	25.8 µM	–	–	11.2%	9.88%	–	–	–
CCOc1cc(/C=C2\C(=O)N(c3ccccc3)N=C2C)cc(Cl)c1OCC(=O)OC	–	–	12.9 µM	–	–	0.78 µM	–	–
COC(=O)/C=C/C(=O)N(c1ccc(Cl)cc1)C(C(=O)c1ccc(Cl)cc1)c1ccc(F)cc1Cl (stereo unspecified)	1.46 µM	18.9 µM	19.5 µM	–	–	–	37.1 µM	17.4 µM
COc1ccc(C(=O)C(Nc2ccc(C)cc2)c2ccc(OC)cc2)cc1 (stereo unspecified)	16.5 µM	33 µM	32.8 µM	–	–	–	–	–
O=C(c1ccc(Cl)cc1)C(Cc1cccc(Cl)c1)C(=O)c1cc(F)ccc1F (stereo unspecified)	6.02 µM	–	–	51.8%	48.1%	–	–	–
